From US20220154184A1, “INCREASING GENOME STABILITY AND REPROGRAMMING EFFICIENCY OF INDUCED PLURIPOTENT STEM CELLS” (THE TRUSTEES OF COLUMBIA UNIVERSITY IN THE CITY OF NEW YORK, priority 2019, published 2022)

Columns and labels:
[1] = system: mouse embryonic fibroblasts (MEFs); assay: OSKM reprogramming of MEFs with drug treatment, alkaline phosphatase (AP) staining / sensitivity score; format: cell-based
Protocol: For infection, P1 mouse embryonic fibroblasts (MEFs) were thawed and plated at 1×10^6 cells per 10 cm dish on the previous day. Infection proceeded in two rounds with 8 h to 9 h in between. Briefly, cells were incubated with an OSKM/rtta virus mix (1:1), supplemented with 8 ug/ml protamine sulfate (Fisher Scientific #0219472905). The infection mix was removed on the following day and cells were left to recover in fresh MEF media (DMEM HG Thermo Fisher Scientific #10569010 with 10% FBS Atlanta Biologicals #S11150, Glutamax Thermo Fisher Scientific #35050079 and PenStrep Thermo Fisher Scientific 15140163).
Two days after infection, cells were re-plated for transduction efficiency assessment on day 3, molecular analyses on day 5, colony picking on day 16 and alkaline phosphatase (AP) staining on day 20. In each experiment, infected fibroblasts from the different genotypes were replated at multiple densities to allow for optimal reprogramming efficiency. For wild-type cells, 100-300 cells/mm^2 (20-60K per well of a 24 w dish) routinely generated high numbers of iPS cell clones. Besides for wild-type, 20-60K per well of a 24 w dish was also optimal for the Bard1 point mutants, Brca1^tr/+ and all combination mutations with Smarcal1 or 53bp1; Brca1^tr/tr, 53bp1^−/− as well as the heterozygous or homozygous Smarcal1 and 53bp1 single mutants. […] The remaining Brca1^tr/tr53BP1^+/− genotype was re-plated at 450 cells/mm^2 (90K/well of a 24 w dish). These seeding densities were later used to calculate the reprogramming efficiency of each genotype. The OSKM reprogramming factors were induced with 1 ug/ml doxycycline (Sigma #D9891) in mouse embryonic stem (mES) cell media, consisting of Knockout DMEM (Life Technologies #10829-018), supplemented with 15% Knockout Serum Replacement (Life Technologies #10828-028), Glutamax (Thermo Fisher Scientific #35050079), MEM NEAA (Life Technologies #11140050), PenStrep (Thermo Fisher Scientific 15140163), 2-mercaptoetahnol (Life Technologies #21985-023) and […] LIF (eBioscience #34-8521-82). Transduction efficiency was determined on reprogramming day 3 by staining for Sox2 (Stemgent #09-0024) and used in the calculation of reprograming efficiency. The reprogramming experiments with drug treatment used aphidicolin (Sigma #A0781) at 0.2 uM, Ttpotecan (Sigma #T2705) at 10 nM or the DNA PK inhibitor NU7026 (Tocris #2828) at 5 uM for 8 days during reprogramming.
Alternatively, for the induction of two-ended DSBs, cells were subjected to a single dose of 6 Gy IR 1 day post doxycycline-mediated OSKM factor induction. Cells were fixed on reprogramming day 18-20 and stained for alkaline phosphatase with the Vector Red detection kit (Vector Laboratories #SK-5100). Reprogramming efficiency was determined by considering the number of AP-positive colonies per number of infected cells, determined by Sox2 staining at the optimal plating density for each genotype. The sensitivity score in the experiments with aphidicolin, topotecan and IR was calculated as follows: the reprogramming efficiency of wild-type treated cells was determined as described above and normalized to the reprogramming efficiency of wild type untreated cells. The same procedure was applied to each mutant genotype. The sensitivity score was obtained by calculating the ratio of treated wild type (normalized to untreated wild type) to treated mutant (normalized to untreated mutant). A large score corresponds to high sensitivity.

[2] = system: wild-type uninfected MEFs; assay: 53bp1 foci immunofluorescence in uninfected fibroblasts treated with aphidicolin; format: cell-based, mouse; settings: 0.2 uM aphidicolin for 3 days
Protocol: Detection of […], phospho RPA(S33) and 53bp1 was performed on reprogramming D5 with the following antibodies: Phospho-RPA2Ser33 (Invitrogen #PA5-39809); Anti-phosphoHistone H2A.X-Ser139 (Millipore #05-636); and 53BP1 Antibody H-300 (Santa Cruz #22760). For detection of Rad51, iPS cell lines were irradiated with 10 Gy and stained with Rad51 (Ab-1) Rabbit pAb (Millipore #PC130) 1.5 h post IR.
The DNA damage observed in the form of phosphorylated H2AX during reprogramming can be the result of global epigenetic remodeling (Hernandez et al., 2018), oxidative stress (Ji et al., 2014) or elevated replication stress (Ruiz et al., 2015). To determine the specific type of DNA damage which is most limiting to iPS cell generation, mouse embryonic fibroblasts (MEFs) were treated during reprogramming with the DNA polymerase inhibitor aphidicolin, which induces one-ended double strand breaks (DSBs), processed by HDR (Rothkamm et al., 2003). To test the effect of aphidicolin on primary cells, uninfected wild type fibroblasts were incubated with 0.2 uM aphidicolin for 3 days and noted an increase in the numbers of 53bp1 foci (FIG. 4B).

## CC[C@@]1(O)C(=O)OCc2c1cc1n(c2=O)Cc2cc3c(CN(C)C)c(O)ccc3nc2-1 [topotecan]
[1]; 53bp1 null cells, 10 nM topotecan for 8 days during reprogramming
  sensitivity of reprogramming: reduced sensitivity
[1]; Brca1^tr/tr53bp1^-/- cells, 10 nM topotecan for 8 days during reprogramming
  sensitivity of reprogramming: mild sensitivity
[1]; Brca1^tr/tr cells, 10 nM topotecan for 8 days during reprogramming
  reprogramming efficiency: greatly reduced efficiency
[1]; wild-type cells, 10 nM topotecan for 8 days during reprogramming
  sensitivity of reprogramming: barely sensitive

## O=c1cc(N2CCOCC2)oc2c1ccc1ccccc12 [DNA PK inhibitor, NU7026]
[1]; wild type MEFs, 5 uM DNA PK inhibitor for 8 days during reprogramming
  efficiency of reprogramming: no effect

## C[C@@]1(CO)[C@H](O)CC[C@@]2(C)[C@H]1CC[C@H]1C[C@@H]3C[C@@]12CC[C@]3(O)CO [aphidicolin]
[2]
  numbers of 53bp1 foci: increase
[1]; 53bp1^-/- mutants, 0.2 uM aphidicolin for 8 days during reprogramming
  sensitivity of reprogramming: less sensitive
[1]; Brca1^tr/tr53bp1^-/- cells, 0.2 uM aphidicolin for 8 days during reprogramming
  reprogramming efficiency compared to the Brca1^tr/tr genotype: improvement of reprogramming efficiency
[1]; Brca1^tr/tr cells, 0.2 uM aphidicolin for 8 days during reprogramming
  sensitivity of reprogramming (colony numbers relative to wild-type): pronounced sensitivity
[1]; wild type cells, 0.2 uM aphidicolin for 8 days during reprogramming
  reprogramming efficiency: reduced the efficiency of the process
